Source: patent publication US20240174744A1, “METHODS OF TREATMENT USING PROTEIN BINDERS TO IRHOM2 EPITOPES” (SCIRHOM GMBH, priority 2021, published 2024)

System: DSS-induced colitis (IBD)
Assay: DSS-induced colitis (IBD) model in humanized NCG mice
Assay type: in vivo, mouse
Conditions: 25 mg/kg i.p. every two days, 8 mice per group
Method: In the following study, an in vivo model was performed to verify the inhibitory effects of the antibodies of the present disclosure on DSS-induced colitis (IBD) in a mouse model for acute IBD. The experiment was carried out with female NOD/Shi-scid/IL-2Rγ null immunodeficient mouse strain (NCG). Mice were humanized using hematopoietic stem cells (CD34+) isolated from human cord blood following TransCure bioServices's proprietary humanization protocol. Only mice with a humanization rate (hCD45/total CD45) above 25% were used.
On day 1, mice were randomized based on the humanization rate and cord blood donors, acute colitis was induced by adding 3% of DSS (Sigma Aldrich, France) in drinking water (MilliQ water provided ad libitum) during […] from D1 to D7 and renewed every 2 days (only for groups #2, #3, #4, #5 and #6). For the recovery period, after the DSS cycle, the DSS solution was removed and replaced by MilliQ water (washout period) during 5 days from day 8 to day 12. […]
Endoscopy score was determined at D5 and D10. […] The endoscope was rectally inserted, and photographs of the endoscopic procedure were recorded. […]
Colon damages were evaluated during the endoscopy using TransCure bioServices's murine endoscopic index of colitis severity (MEICS) that consists of colon thickening, changes of vascular pattern, visible fibrin, granularity of mucosal surface and stool consistency as scoring parameters. […]
All mice were clinically monitored during the whole study for unexpected signs of distress, changes in body weight and evolution of disease severity. These parameters were recorded daily and each mouse was assigned a global IBD score, consisting of body weight, diarrhea & stool consistency and bleeding. The latter two were assessed by visually monitoring stool and mouse hairs around the anus and tail. Moreover, the mortality was also recorded.

Infliximab: Infliximab (Merck Sharp & Dohme, USA), comparator group #3
mice that survived the complete study period: two out of 8

Adalimumab
mice that survived the complete study period: two out of 8

Tocilizumab: Tocilizumab (Roche, Switzerland), comparator group #4
mice that survived the complete study period: one out of 8
